In article PMC5564600 (Oncotarget, 2017) one finds remaining activity data, which are given here for four molecules.

Experiment in all cases: biochemical
What all share (type): binding

The target in experiment [1] is T1, panel of 442 kinases (Homo sapiens, UniProt O60331).
T1 construct: purchased Ambit Biosciences (scanMAXX KINOMEscan)
To be noted: kinase PIP5K1C; for remaining activity at 1 µM: read-out: % of control at 1 µM.

For experiment [2], the target named is T2, panel of 442 kinases (Homo sapiens, UniProt O94768).
T2 construct: purchased Ambit Biosciences (scanMAXX KINOMEscan)
T2 sequence (O94768 1-372): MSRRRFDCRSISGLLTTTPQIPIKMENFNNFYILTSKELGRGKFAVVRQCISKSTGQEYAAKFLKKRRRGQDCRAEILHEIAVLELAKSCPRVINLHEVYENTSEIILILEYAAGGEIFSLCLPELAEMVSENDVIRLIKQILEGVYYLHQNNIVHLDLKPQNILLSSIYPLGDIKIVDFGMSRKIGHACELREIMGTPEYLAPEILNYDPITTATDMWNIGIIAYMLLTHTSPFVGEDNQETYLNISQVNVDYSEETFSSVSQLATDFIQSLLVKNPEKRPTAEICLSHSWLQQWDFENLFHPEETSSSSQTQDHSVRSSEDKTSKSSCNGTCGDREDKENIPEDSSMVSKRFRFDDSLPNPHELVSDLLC
To be noted: DRAK2; for remaining activity at 1 µM: read-out: % of control at 1 µM.

Experiment [3] has as its target T3, panel of 442 kinases (Homo sapiens, UniProt P07948).
T3 construct: purchased Ambit Biosciences (scanMAXX KINOMEscan)
To be noted: kinase LYN; for remaining activity at 1 µM: read-out: % of control at 1 µM.

The target in experiment [4] is T4, panel of 442 kinases (Homo sapiens, UniProt P21709).
T4 construct: purchased Ambit Biosciences (scanMAXX KINOMEscan)
T4 sequence (P21709 26-976): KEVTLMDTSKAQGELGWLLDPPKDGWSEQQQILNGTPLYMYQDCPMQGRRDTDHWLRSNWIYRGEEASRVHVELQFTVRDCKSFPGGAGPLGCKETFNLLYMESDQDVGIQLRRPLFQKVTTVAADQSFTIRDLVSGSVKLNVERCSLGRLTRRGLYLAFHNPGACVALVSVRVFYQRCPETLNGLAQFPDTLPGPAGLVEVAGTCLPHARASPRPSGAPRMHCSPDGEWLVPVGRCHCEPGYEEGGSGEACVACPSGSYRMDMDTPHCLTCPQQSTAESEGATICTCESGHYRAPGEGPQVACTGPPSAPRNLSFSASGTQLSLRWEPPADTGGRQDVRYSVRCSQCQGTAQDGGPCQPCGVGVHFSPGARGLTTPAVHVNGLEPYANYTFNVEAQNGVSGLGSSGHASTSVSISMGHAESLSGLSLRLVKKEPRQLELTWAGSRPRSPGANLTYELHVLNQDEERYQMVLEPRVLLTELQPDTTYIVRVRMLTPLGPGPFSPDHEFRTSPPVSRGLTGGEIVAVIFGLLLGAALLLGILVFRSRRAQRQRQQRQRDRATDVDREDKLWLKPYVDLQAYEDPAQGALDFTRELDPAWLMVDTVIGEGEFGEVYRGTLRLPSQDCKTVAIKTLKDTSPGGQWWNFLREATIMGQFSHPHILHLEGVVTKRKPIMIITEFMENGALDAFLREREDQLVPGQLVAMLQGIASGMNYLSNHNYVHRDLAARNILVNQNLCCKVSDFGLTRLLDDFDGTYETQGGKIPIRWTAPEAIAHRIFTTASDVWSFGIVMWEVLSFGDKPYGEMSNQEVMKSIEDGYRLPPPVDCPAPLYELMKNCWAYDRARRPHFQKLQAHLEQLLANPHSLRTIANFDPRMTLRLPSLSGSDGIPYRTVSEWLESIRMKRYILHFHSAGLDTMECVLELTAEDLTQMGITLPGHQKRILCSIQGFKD
To be noted: EPHA1; for remaining activity at 1 µM: read-out: % of control at 1 µM.

Experiment [5] addresses T5, panel of 442 kinases (Homo sapiens, UniProt P57059).
T5 construct: purchased Ambit Biosciences (scanMAXX KINOMEscan)
Conditions: kinase SIK; for remaining activity at 1 µM: read-out: SIK (% of control at 1 µM).

The target of experiment [6] is T6, panel of 442 kinases (Homo sapiens, UniProt Q15139).
T6 construct: purchased Ambit Biosciences (scanMAXX KINOMEscan)
T6 sequence (Q15139 1-912): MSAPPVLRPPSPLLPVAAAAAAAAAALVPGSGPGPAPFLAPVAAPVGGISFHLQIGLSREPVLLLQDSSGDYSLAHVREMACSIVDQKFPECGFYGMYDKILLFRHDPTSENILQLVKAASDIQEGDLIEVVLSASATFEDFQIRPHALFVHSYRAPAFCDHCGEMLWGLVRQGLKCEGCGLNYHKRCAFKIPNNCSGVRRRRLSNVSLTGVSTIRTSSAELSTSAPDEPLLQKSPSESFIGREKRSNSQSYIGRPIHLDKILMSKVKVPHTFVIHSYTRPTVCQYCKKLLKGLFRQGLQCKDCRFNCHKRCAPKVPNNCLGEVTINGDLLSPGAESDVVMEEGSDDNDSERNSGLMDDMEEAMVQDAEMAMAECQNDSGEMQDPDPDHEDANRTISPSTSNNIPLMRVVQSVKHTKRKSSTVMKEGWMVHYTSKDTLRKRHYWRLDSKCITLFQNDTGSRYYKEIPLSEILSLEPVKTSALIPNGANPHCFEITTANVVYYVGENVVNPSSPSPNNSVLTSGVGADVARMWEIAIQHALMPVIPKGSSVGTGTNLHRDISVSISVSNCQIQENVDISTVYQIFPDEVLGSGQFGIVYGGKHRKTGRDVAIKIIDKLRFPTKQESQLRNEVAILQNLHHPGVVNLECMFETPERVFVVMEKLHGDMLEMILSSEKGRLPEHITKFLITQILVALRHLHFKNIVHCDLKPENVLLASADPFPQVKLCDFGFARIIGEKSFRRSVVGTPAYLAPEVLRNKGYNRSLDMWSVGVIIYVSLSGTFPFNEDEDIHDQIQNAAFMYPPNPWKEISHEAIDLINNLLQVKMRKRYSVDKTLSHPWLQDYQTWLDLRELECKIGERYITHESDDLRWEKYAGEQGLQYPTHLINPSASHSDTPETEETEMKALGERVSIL
To be noted: kinase PRKD1; for remaining activity at 1 µM: read-out: PRKD1 (% of control at 1 µM).

The target in experiment [7] is T7, panel of 442 kinases (Homo sapiens, UniProt Q8NEV4).
T7 construct: purchased Ambit Biosciences (scanMAXX KINOMEscan)
Conditions: kinase MYO3A; for remaining activity at 1 µM: read-out: % of control at 1 µM.

Experiment [8] deals with T8, panel of 442 kinases (Homo sapiens, UniProt Q9NY57).
T8 construct: purchased Ambit Biosciences (scanMAXX KINOMEscan)
Conditions: kinase YANK2; for remaining activity at 1 µM: read-out: YANK2 (% of control at 1 µM).

For experiment [9], the target named is T9, panel of 442 kinases (Homo sapiens, UniProt Q9NYY3).
T9 construct: purchased Ambit Biosciences (scanMAXX KINOMEscan)
To be noted: kinase PLK2; for remaining activity at 1 µM: read-out: PLK2 (% of control at 1 µM).

Where [10] appears, read: 10 µM, read-out: % of control at 10 µM.

T3 sequence (P07948 whole entry): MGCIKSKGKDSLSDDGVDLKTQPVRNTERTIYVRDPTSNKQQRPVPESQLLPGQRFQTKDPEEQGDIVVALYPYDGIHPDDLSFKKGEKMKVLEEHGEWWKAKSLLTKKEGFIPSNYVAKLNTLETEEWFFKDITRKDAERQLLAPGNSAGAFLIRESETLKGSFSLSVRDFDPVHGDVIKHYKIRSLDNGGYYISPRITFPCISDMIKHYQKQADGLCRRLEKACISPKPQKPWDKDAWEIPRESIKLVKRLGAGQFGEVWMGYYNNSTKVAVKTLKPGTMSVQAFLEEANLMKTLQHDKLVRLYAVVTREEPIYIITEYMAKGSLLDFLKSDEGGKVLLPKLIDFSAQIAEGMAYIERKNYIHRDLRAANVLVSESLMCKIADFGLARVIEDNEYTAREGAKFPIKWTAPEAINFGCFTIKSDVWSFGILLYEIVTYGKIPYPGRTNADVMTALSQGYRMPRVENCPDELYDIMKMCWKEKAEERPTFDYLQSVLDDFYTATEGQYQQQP
T1 sequence (O60331 whole entry): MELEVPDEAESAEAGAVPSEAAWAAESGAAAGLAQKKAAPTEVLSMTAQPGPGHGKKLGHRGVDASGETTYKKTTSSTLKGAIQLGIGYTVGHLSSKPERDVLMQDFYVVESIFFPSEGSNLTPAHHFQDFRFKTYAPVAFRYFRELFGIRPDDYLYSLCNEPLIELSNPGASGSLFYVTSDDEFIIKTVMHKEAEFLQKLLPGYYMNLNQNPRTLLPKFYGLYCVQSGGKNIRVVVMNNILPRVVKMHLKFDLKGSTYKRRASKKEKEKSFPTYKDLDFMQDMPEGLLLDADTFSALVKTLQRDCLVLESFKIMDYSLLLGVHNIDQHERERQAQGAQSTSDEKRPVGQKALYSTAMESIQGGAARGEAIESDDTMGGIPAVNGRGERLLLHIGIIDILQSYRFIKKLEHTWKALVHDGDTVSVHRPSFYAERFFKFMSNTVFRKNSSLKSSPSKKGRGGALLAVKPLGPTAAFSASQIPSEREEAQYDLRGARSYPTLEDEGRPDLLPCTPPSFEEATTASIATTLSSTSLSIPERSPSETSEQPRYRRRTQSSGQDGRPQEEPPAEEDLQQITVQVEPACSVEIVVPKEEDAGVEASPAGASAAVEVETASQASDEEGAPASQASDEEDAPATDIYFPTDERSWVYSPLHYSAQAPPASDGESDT
T5 sequence (P57059 whole entry): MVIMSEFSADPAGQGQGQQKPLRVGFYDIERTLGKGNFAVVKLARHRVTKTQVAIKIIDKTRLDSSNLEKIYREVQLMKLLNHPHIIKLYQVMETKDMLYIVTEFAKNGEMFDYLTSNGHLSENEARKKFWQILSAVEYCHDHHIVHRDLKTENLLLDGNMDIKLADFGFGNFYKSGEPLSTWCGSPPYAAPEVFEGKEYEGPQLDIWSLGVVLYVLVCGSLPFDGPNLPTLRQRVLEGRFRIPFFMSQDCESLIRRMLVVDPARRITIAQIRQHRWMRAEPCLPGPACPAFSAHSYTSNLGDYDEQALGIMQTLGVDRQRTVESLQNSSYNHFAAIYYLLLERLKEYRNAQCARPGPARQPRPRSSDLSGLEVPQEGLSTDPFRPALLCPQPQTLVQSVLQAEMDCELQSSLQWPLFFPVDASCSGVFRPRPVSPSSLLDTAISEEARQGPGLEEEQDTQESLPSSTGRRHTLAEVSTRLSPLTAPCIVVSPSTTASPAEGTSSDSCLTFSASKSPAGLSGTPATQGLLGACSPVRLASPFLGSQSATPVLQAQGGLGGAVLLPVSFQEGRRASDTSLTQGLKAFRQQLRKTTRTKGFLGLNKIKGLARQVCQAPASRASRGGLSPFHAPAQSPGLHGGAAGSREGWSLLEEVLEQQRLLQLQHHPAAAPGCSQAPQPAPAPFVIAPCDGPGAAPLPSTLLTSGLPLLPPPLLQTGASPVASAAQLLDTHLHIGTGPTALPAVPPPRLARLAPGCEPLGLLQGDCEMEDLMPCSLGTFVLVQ
T7 sequence (Q8NEV4 whole entry): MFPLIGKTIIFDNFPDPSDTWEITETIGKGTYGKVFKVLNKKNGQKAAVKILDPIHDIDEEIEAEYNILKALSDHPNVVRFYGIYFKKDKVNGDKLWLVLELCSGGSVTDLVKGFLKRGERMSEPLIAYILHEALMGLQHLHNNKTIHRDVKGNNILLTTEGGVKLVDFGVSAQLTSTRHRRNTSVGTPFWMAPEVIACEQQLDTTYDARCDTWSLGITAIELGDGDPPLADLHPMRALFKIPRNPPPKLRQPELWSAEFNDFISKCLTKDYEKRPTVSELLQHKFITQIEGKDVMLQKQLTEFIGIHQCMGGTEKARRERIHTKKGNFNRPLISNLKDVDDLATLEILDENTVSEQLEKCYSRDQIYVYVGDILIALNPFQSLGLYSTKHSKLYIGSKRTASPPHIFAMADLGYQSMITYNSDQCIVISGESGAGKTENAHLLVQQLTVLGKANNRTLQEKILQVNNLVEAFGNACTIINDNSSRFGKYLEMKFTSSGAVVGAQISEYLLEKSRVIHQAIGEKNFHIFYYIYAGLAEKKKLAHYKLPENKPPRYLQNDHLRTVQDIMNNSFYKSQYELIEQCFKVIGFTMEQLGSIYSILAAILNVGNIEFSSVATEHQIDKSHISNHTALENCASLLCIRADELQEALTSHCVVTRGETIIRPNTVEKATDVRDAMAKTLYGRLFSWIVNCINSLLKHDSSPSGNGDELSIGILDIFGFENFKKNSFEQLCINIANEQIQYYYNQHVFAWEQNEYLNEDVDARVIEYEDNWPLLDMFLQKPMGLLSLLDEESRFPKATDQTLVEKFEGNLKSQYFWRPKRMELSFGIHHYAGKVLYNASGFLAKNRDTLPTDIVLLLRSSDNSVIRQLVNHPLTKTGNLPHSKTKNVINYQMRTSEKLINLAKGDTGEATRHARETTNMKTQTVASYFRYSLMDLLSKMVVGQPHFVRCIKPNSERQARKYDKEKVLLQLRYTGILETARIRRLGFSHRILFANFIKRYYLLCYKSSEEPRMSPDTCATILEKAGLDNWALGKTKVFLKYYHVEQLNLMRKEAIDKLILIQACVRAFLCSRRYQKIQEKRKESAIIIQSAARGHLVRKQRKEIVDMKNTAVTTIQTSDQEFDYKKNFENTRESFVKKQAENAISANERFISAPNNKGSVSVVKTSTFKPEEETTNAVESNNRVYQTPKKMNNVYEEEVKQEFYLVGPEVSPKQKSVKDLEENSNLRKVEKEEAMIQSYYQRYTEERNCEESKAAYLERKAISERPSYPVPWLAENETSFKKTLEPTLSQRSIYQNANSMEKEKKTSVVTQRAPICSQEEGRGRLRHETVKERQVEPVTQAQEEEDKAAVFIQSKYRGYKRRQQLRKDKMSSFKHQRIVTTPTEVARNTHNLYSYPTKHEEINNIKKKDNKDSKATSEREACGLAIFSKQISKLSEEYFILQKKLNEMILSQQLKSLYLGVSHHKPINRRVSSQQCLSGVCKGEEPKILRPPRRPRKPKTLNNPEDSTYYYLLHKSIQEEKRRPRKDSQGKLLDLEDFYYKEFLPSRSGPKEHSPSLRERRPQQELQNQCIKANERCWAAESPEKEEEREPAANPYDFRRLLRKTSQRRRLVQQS
T9 sequence (Q9NYY3 whole entry): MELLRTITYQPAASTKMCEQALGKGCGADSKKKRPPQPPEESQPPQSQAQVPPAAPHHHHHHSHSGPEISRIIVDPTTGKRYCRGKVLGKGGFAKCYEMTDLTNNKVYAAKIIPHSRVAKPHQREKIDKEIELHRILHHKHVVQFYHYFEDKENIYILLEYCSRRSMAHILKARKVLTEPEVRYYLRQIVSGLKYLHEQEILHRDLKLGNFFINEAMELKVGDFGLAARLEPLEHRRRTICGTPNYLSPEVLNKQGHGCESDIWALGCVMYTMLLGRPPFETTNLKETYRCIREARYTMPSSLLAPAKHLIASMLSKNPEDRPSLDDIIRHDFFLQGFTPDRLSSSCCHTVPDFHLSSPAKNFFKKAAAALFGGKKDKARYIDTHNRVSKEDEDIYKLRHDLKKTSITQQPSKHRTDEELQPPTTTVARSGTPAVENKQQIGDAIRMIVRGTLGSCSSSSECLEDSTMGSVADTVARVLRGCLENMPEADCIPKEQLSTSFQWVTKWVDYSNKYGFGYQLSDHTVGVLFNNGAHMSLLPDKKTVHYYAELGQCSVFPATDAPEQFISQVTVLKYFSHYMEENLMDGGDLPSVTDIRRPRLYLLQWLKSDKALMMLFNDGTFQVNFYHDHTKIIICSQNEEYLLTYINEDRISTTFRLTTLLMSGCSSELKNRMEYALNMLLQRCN
T8 sequence (Q9NY57 whole entry): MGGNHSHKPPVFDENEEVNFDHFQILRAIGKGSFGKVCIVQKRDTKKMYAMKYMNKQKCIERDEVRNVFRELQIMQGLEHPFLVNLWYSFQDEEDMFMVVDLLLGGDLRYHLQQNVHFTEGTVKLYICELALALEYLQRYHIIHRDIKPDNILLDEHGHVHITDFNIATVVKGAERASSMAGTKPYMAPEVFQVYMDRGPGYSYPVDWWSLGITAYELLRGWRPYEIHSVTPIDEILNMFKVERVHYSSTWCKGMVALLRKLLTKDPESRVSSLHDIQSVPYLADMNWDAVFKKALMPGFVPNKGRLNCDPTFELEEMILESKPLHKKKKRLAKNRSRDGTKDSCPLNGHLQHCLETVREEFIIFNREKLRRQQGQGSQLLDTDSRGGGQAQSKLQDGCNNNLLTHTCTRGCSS

Take `COc1ncc(-c2ccc3nccc(-c4ccnnc4)c3c2)cc1NS(=O)(=O)c1ccc(F)cc1F` [Omipalisib]: the remaining activity at 1 µM at panel of 442 kinases [1] amounted to 100%; on panel of 442 kinases [2], 100%; on panel of 442 kinases [3], 100%; at panel of 442 kinases [4], 97%; at panel of 442 kinases [5], 100%; on panel of 442 kinases [6], 100%. The remaining activity at 1 µM at panel of 442 kinases [7], at panel of 442 kinases [8] and at panel of 442 kinases [9] was 100% in each case.

In the case of `Cn1c(=O)n(-c2ccc(C(C)(C)C#N)cc2)c2c3cc(-c4cnc5ccccc5c4)ccc3ncc21` [Dactolisib, 2-methyl-2-[4-(3-methyl-2-oxo-8-quinolin-3-yl-2,3-dihydroimidazo[4,5-c]quinolin-1-yl)-phenyl] propionitrile], the remaining activity at 1 µM stood at 100% on panel of 442 kinases [1]; 68% at panel of 442 kinases [2]; 87% at panel of 442 kinases [3]; 100% on panel of 442 kinases [4]; 100% on panel of 442 kinases [5]; 100% at panel of 442 kinases [6]. For the same molecule, the remaining activity at 1 µM amounted to 88% on panel of 442 kinases [7], 96% on panel of 442 kinases [8] and 100% on panel of 442 kinases [9].

For the molecule `Nc1cc(C(F)(F)F)c(-c2cc(N3CCOCC3)nc(N3CCOCC3)n2)cn1` [Buparlisib], the remaining activity at 1 µM turned out to be 55% on panel of 442 kinases [1]; 100% on panel of 442 kinases [2]; 84% at panel of 442 kinases [3]; 90% on panel of 442 kinases [4]; 100% on panel of 442 kinases [5]; 100% on panel of 442 kinases [6]. Moreover, the remaining activity at 1 µM on panel of 442 kinases [7] stood at 90%; at panel of 442 kinases [8], 100%; on panel of 442 kinases [9] it was 89%. For the same molecule, the remaining activity at 10 µM on panel of 442 kinases [1] (setting [10]) came out at 63%; on panel of 442 kinases [2] (setting [10]) it was 100%; at panel of 442 kinases [3] (setting [10]), 100%; at panel of 442 kinases [4] (setting [10]), 100%; on panel of 442 kinases [5] (10 µM, read-out: SIK (% of control at 10 µM)), 100%; at panel of 442 kinases [6] (10 µM, read-out: PRKD1 (% of control at 10 µM)) it was 100%. The remaining activity at 10 µM stood at 100% at panel of 442 kinases [7] (setting [10]); 100% on panel of 442 kinases [8] (10 µM, read-out: YANK2 (% of control at 10 µM)); 100% at panel of 442 kinases [9] (10 µM, read-out: PLK2 (% of control at 10 µM)).

For the molecule `FC(F)c1nc2ccccc2n1-c1nc(N2CCOCC2)nc(N2CCOCC2)n1` [ZSTK474, 2-(difluoromethyl)-1-[4,6-di(4-morpholinyl)-1,3,5-triazin-2-yl]-1H-benzimidazole], the remaining activity at 1 µM on panel of 442 kinases [1] worked out at 100%; at panel of 442 kinases [2], 86%; at panel of 442 kinases [3], 100%; on panel of 442 kinases [4], 99%; at panel of 442 kinases [5], 100%; on panel of 442 kinases [6], 100%. For the same molecule, the remaining activity at 1 µM on panel of 442 kinases [7] was determined as 99%; on panel of 442 kinases [8], 100%; at panel of 442 kinases [9], 100%.
